Tested on: yeast genes (level of expressed mRNA)
Assay: DNA chip analysis of expressed mRNA of yeast genes after 2 h culture with a toxic chemical substance
Assay type: cell-based, Saccharomyces cerevisiae S288C
Description: Yeast (Saccharomyces cerevtisiae S288C (α SUC2mal mel gap2 CUP1)) were cultured at 25° C. on YPD medium (yeast extract 1%, polypepton 2%, glucose 2%). One of toxic chemical substances was added to the cell at logarithmic growth phase, and the cell was further cultured for two hours. Cell was cultured without any chemical substance in the same condition, and was used as control. Concentrations of the chemical substances were defined to inhibit the growth of the yeast but not lead to death.
After the completion of cultivation, the culture was centrifuged to collect the cells. To the cells, sodium acetate buffer (50 mM sodium acetate, 10 mM EDTA, 1% SDS) was added, and the mixture was shaken at 65° C. for five minutes, followed by returning to room temperature, and obtaining the supernatant, which procedure was repeated two times. To the supernatant, ½ amount of a solution of phenol/chloroform was added, and the mixture was centrifuged to give a supernatant, which was added with an equal amount of chloroform, and the mixture was centrifuged to give a supernatant. To the supernatant, an equal amount of isopropanol containing 0.3 M sodium acetate was added, and the mixture was allowed to stand at room temperature for 30 minutes, after which the mixture was centrifuged to give a sediment of the whole RNAs. Seventy % ethanol was added to the sediment, and the mixture was again centrifuged to give a sediment, which was then dried and dissolved in water. mRNA was isolated from the whole RNAs as followings. In view of the fact that a poly A chain is attached to the 3′ terminus of mRNA, a polynucleotide having a poly T structure which was immobilized on the surface of latex beads was used to trap the mRNA, and then the mRNA was washed and eluted with spine column (Oligotex-dT30<Super>mRNA Purification Kit, Takara). Reverse transcription of the mRNA was conducted with a reverse transcriptase (Super Script II Reverse Transcriptase; catalogue No. 18064-014, GibcoBRL) using fluorescence-labeled nucleotides to give cDNAs that were introduced with Cy3-dUTP or Cy5-dUTP during the reverse transcription.
The labeled cDNAs were dissolved in TE buffer (10 mM Tris-HCl/1 mM EDTA, pH8.0), and the solution was dropped on the DNA chip containing the whole genes of yeast (DNA Chip Research Inc. Japan) so that the cDNAs were hybridized on the DNA chip at 65° C. for over 12 hours. The fluoresces intensity of the DNA chip was read with a scanner, and the ratio relative to the fluorescence intensity resulting from the absence of chemical substance was estimated as the following, which is shown in Tables 1 to 9: [formula]
In the Tables, “Intensity” indicated in the rightmost column is a value of the level of expressed mRNA of each gene in control cells as divided by the average level of the expressions of the whole genes.

COc1cc(CNC(=O)CCCCC=CC(C)C)ccc1O [(12), 8-methyl-N-vanillyl-6-nonenamide]
1.1: level of expressed mRNA in the presence of chemical substance/in its absence (gene YAL012W) | The level of expressed mRNA in the presence of chemical substance/absence: YAL049C (gene YAL049C) | The level of expressed mRNA in the presence of chemical substance/absence: YBR063C (gene YBR063C) | The level of expressed mRNA in the presence of chemical substance/absence: YDL173W (gene YDL173W) | The level of expressed mRNA in the presence of chemical substance/absence: YDL193W (gene YDL193W) | The level of expressed mRNA in the presence of chemical substance/absence: YDR140W (gene YDR140W) | The level of expressed mRNA in the presence of chemical substance/absence: YDR425W (gene YDR425W) | The level of expressed mRNA in the presence of chemical substance/absence: YGL045W (gene YGL045W) | The level of expressed mRNA in the presence of chemical substance/absence: YGL057C (gene YGL057C) | level of expressed mRNA in the presence of chemical substance/in its absence (gene YGL104C)
0.7: level of expressed mRNA in the presence of chemical substance/in its absence (gene YBL001C) | The level of expressed mRNA in the presence of chemical substance/absence: YBL100C (gene YBL100C) | The level of expressed mRNA in the presence of chemical substance/absence: YBR051W (gene YBR051W) | The level of expressed mRNA in the presence of chemical substance/absence: YBR066C (gene YBR066C) | The level of expressed mRNA in the presence of chemical substance/absence: YBR162C (gene YBR162C) | The level of expressed mRNA in the presence of chemical substance/absence: YBR255W (gene YBR255W) | level of expressed mRNA in the presence of chemical substance/in its absence (gene YCL064C) | level of expressed mRNA in the presence of chemical substance/in its absence (gene YCR037C) | level of expressed mRNA in the presence of chemical substance/in its absence (gene YDR019C) | The level of expressed mRNA in the presence of chemical substance/absence: YDR078C (gene YDR078C) | The level of expressed mRNA in the presence of chemical substance/absence: YDR271C (gene YDR271C) | The level of expressed mRNA in the presence of chemical substance/absence: YDR421W (gene YDR421W) | The level of expressed mRNA in the presence of chemical substance/absence: YDR504C (gene YDR504C) | level of expressed mRNA in the presence of chemical substance/in its absence (gene YGL022W) | The level of expressed mRNA in the presence of chemical substance/absence: YGR198W (gene YGR198W)
0.8: The level of expressed mRNA in the presence of chemical substance/absence: YAR064W (gene YAR064W) | level of expressed mRNA in the presence of chemical substance/in its absence (gene YBR023C) | level of expressed mRNA in the presence of chemical substance/in its absence (gene YBR068C) | The level of expressed mRNA in the presence of chemical substance/absence: YCR007C (gene YCR007C) | The level of expressed mRNA in the presence of chemical substance/absence: YDR250C (gene YDR250C) | The level of expressed mRNA in the presence of chemical substance/absence: YDR338C (gene YDR338C) | level of expressed mRNA in the presence of chemical substance/in its absence (gene YEL020C) | level of expressed mRNA in the presence of chemical substance/in its absence (gene YER069W) | The level of expressed mRNA in the presence of chemical substance/absence: YGR237C (gene YGR237C)
1.0: The level of expressed mRNA in the presence of chemical substance/absence: YAL017W (gene YAL017W) | level of expressed mRNA in the presence of chemical substance/in its absence (gene YAL054C) | The level of expressed mRNA in the presence of chemical substance/absence: YBR012C (gene YBR012C) | level of expressed mRNA in the presence of chemical substance/in its absence (gene YBR050C) | The level of expressed mRNA in the presence of chemical substance/absence: YBR129C (gene YBR129C) | level of expressed mRNA in the presence of chemical substance/in its absence (gene YBR145W) | The level of expressed mRNA in the presence of chemical substance/absence: YCL056C (gene YCL056C) | The level of expressed mRNA in the presence of chemical substance/absence: YDL046W (gene YDL046W) | level of expressed mRNA in the presence of chemical substance/in its absence (gene YDR009W) | The level of expressed mRNA in the presence of chemical substance/absence: YDR109C (gene YDR109C) | The level of expressed mRNA in the presence of chemical substance/absence: YER182W (gene YER182W) | The level of expressed mRNA in the presence of chemical substance/absence: YGR038W (gene YGR038W) | level of expressed mRNA in the presence of chemical substance/in its absence (gene YGR060W) | The level of expressed mRNA in the presence of chemical substance/absence: YGR293C (gene YGR293C)
2.0: level of expressed mRNA in the presence of chemical substance/in its absence (gene YAR071W)
0.6: level of expressed mRNA in the presence of chemical substance/in its absence (gene YAL044C) | level of expressed mRNA in the presence of chemical substance/in its absence (gene YBR014C) | The level of expressed mRNA in the presence of chemical substance/absence: YDR090C (gene YDR090C) | The level of expressed mRNA in the presence of chemical substance/absence: YDR128W (gene YDR128W) | The level of expressed mRNA in the presence of chemical substance/absence: YDR221W (gene YDR221W) | The level of expressed mRNA in the presence of chemical substance/absence: YDR278C (gene YDR278C) | The level of expressed mRNA in the presence of chemical substance/absence: YDR316W (gene YDR316W) | The level of expressed mRNA in the presence of chemical substance/absence: YDR366C (gene YDR366C) | The level of expressed mRNA in the presence of chemical substance/absence: YEL044W (gene YEL044W) | The level of expressed mRNA in the presence of chemical substance/absence: YFR026C (gene YFR026C) | The level of expressed mRNA in the presence of chemical substance/absence: YGL041C (gene YGL041C) | The level of expressed mRNA in the presence of chemical substance/absence: YGL088W (gene YGL088W) | level of expressed mRNA in the presence of chemical substance/in its absence (gene YGL126W) | The level of expressed mRNA in the presence of chemical substance/absence: YGR210C (gene YGR210C) | The level of expressed mRNA in the presence of chemical substance/absence: YGR211W (gene YGR211W) | The level of expressed mRNA in the presence of chemical substance/absence: YGR250C (gene YGR250C) | The level of expressed mRNA in the presence of chemical substance/absence: YGR266W (gene YGR266W)
0.9: The level of expressed mRNA in the presence of chemical substance/absence: YAL018C (gene YAL018C) | The level of expressed mRNA in the presence of chemical substance/absence: YAR047C (gene YAR047C) | The level of expressed mRNA in the presence of chemical substance/absence: YBL044W (gene YBL044W) | The level of expressed mRNA in the presence of chemical substance/absence: YBR124W (gene YBR124W) | level of expressed mRNA in the presence of chemical substance/in its absence (gene YBR222C) | The level of expressed mRNA in the presence of chemical substance/absence: YCL044C (gene YCL044C) | level of expressed mRNA in the presence of chemical substance/in its absence (gene YCR048W) | The level of expressed mRNA in the presence of chemical substance/absence: YDL089W (gene YDL089W) | The level of expressed mRNA in the presence of chemical substance/absence: YDL233W (gene YDL233W) | The level of expressed mRNA in the presence of chemical substance/absence: YDR071C (gene YDR071C) | The level of expressed mRNA in the presence of chemical substance/absence: YDR281C (gene YDR281C) | level of expressed mRNA in the presence of chemical substance/in its absence (gene YDR410C) | The level of expressed mRNA in the presence of chemical substance/absence: YDR485C (gene YDR485C) | The level of expressed mRNA in the presence of chemical substance/absence: YER092W (gene YER092W) | The level of expressed mRNA in the presence of chemical substance/absence: YFL042C (gene YFL042C) | level of expressed mRNA in the presence of chemical substance/in its absence (gene YGL001C) | level of expressed mRNA in the presence of chemical substance/in its absence (gene YGL134W) | level of expressed mRNA in the presence of chemical substance/in its absence (gene YGL154C) | The level of expressed mRNA in the presence of chemical substance/absence: YGL183C (gene YGL183C) | The level of expressed mRNA in the presence of chemical substance/absence: YGL223C (gene YGL223C) | The level of expressed mRNA in the presence of chemical substance/absence: YGR277C (gene YGR277C)
0.3: The level of expressed mRNA in the presence of chemical substance/absence: YDR133C (gene YDR133C)
1.7: level of expressed mRNA in the presence of chemical substance/in its absence (gene YCL009C) | level of expressed mRNA in the presence of chemical substance/in its absence (gene YER026C)
0.5: The level of expressed mRNA in the presence of chemical substance/absence: YBR281C (gene YBR281C) | The level of expressed mRNA in the presence of chemical substance/absence: YFR056C (gene YFR056C) | The level of expressed mRNA in the presence of chemical substance/absence: YGR139W (gene YGR139W)
1.2: The level of expressed mRNA in the presence of chemical substance/absence: YAL014C (gene YAL014C) | level of expressed mRNA in the presence of chemical substance/in its absence (gene YAL038W) | The level of expressed mRNA in the presence of chemical substance/absence: YBR013C (gene YBR013C) | level of expressed mRNA in the presence of chemical substance/in its absence (gene YBR035C) | level of expressed mRNA in the presence of chemical substance/in its absence (gene YBR111C) | level of expressed mRNA in the presence of chemical substance/in its absence (gene YBR183W) | The level of expressed mRNA in the presence of chemical substance/absence: YBR287W (gene YBR287W) | level of expressed mRNA in the presence of chemical substance/in its absence (gene YBR299W) | level of expressed mRNA in the presence of chemical substance/in its absence (gene YDL022W) | level of expressed mRNA in the presence of chemical substance/in its absence (gene YGL253W) | The level of expressed mRNA in the presence of chemical substance/absence: YGR156W (gene YGR156W) | The level of expressed mRNA in the presence of chemical substance/absence: YGR243W (gene YGR243W)
1.3: level of expressed mRNA in the presence of chemical substance/in its absence (gene YBR029C) | level of expressed mRNA in the presence of chemical substance/in its absence (gene YCR098C) | level of expressed mRNA in the presence of chemical substance/in its absence (gene YDR487C) | level of expressed mRNA in the presence of chemical substance/in its absence (gene YDR502C) | level of expressed mRNA in the presence of chemical substance/in its absence (gene YGL039W) | level of expressed mRNA in the presence of chemical substance/in its absence (gene YGL209W) | level of expressed mRNA in the presence of chemical substance/in its absence (gene YGR282C)
1.5: level of expressed mRNA in the presence of chemical substance/in its absence (gene YEL011W)
0.4: level of expressed mRNA in the presence of chemical substance/in its absence (gene YDR380W) | level of expressed mRNA in the presence of chemical substance/in its absence (gene YFR015C)
